The inhibition in vivo is how much of the control response was suppressed. By inhibition is commonly meant the percentage by which the read-out fell short of the control. The LD50 is the dose at which mortality reaches 50%. A low value points to greater toxicity.

Data set [1] deals with Rattus norvegicus. Kind of data set: Anti-inflammatory activity in Wistar rat assessed as inhibition of kaolin paw edema at 50 mg/kg, po dosed 1 hr before kaolin injection and measured 4 hrs after kaolin injection relative to untreated control. It counts as functional.
The subject of data set [2] is Rattus norvegicus. Kind of data set: Anti-ulcer activity in Wistar rat model of ethanol-induced gastric ulcer model assessed as ulcer area at 50 mg/kg, po dosed 1 hr before ethanol injection relative to untreated control. The data set is classed as functional.
For data set [3], the target named is T1, Acetylcholinesterase (Homo sapiens, UniProt P22303). Kind of data set: Inhibition of AChE (unknown origin) at 0.5 mM using […] as substrate by Ellman method relative to untreated control. (DTNB colorimetry detects thiols as they appear.)
T1 sequence (P22303 whole entry): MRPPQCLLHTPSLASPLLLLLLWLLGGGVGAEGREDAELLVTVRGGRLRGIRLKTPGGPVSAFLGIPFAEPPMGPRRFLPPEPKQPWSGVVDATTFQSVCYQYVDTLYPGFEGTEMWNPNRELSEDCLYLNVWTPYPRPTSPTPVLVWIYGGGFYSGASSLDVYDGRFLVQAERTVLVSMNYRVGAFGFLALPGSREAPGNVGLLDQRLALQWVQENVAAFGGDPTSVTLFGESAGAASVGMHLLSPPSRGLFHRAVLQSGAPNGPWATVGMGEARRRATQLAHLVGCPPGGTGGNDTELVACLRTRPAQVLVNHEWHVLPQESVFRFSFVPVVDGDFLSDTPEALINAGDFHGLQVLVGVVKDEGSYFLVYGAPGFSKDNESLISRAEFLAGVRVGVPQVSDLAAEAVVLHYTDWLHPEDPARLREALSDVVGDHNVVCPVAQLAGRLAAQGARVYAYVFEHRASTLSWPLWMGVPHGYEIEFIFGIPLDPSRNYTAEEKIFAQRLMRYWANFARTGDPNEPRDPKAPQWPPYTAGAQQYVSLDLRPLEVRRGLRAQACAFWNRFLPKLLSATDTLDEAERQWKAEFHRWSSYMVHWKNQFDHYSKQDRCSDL
The target in data set [4] is T1, Acetylcholinesterase. The experiment in a line: Inhibition of AChE (unknown origin) using […] as substrate by Ellman method.
Data set [5] deals with T2, Cholinesterase (Homo sapiens, UniProt P06276). Kind of data set: Inhibition of BuChE (unknown origin) at 0.5 mM using butyrylthiocholine bromide as substrate by Ellman method relative to untreated control.
T2 sequence (P06276 whole entry): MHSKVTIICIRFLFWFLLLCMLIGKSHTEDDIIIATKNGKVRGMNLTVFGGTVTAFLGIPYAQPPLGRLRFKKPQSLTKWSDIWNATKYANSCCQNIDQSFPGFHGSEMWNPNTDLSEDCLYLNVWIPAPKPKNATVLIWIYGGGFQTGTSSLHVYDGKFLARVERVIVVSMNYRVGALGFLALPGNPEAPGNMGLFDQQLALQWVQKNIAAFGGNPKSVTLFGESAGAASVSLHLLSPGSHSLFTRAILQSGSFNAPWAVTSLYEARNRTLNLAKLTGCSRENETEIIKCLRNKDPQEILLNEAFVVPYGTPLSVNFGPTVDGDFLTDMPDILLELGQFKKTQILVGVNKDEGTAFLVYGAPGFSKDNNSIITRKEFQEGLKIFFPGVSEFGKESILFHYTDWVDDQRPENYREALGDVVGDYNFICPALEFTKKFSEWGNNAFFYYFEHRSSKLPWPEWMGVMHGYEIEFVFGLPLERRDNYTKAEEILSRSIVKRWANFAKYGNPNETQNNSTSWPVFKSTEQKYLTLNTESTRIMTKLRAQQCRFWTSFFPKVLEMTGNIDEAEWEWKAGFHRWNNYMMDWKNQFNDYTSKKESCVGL
In data set [6] the target is T2, Cholinesterase. Kind of data set: Inhibition of BuChE (unknown origin) using butyrylthiocholine bromide as substrate by Ellman method.
Data set [7] concerns the target T3, Polyunsaturated fatty acid 5-lipoxygenase (Homo sapiens) (UniProt P09917).
T3 sequence (whole entry): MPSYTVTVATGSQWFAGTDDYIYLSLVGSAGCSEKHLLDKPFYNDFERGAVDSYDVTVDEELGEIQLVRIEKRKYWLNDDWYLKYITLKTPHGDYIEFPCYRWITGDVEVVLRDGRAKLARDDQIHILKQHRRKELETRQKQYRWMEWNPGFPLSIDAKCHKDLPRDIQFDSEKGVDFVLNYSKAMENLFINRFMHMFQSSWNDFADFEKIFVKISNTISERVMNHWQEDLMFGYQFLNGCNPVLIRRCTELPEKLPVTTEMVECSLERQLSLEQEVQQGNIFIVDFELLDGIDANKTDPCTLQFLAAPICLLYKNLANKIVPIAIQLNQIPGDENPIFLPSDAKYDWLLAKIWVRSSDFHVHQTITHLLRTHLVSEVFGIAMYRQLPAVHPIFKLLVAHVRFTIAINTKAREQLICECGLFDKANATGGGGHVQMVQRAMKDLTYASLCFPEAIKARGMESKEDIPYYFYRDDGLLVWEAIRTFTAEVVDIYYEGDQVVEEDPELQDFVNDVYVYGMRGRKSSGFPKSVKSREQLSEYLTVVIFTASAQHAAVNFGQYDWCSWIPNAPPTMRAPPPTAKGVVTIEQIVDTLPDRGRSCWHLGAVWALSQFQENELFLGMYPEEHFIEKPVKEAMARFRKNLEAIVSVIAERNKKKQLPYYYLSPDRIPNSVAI
The experiment in a line: Inhibition of 5-LOX (unknown origin) relative to untreated control. To be noted: concentration not given here.

A short description of data set [8]: Toxicity in orally dosed Wistar rat monitored every hour for 12 hrs and then every day for 14 days. The data set is classed as organism-based. The conditions noted are these: in vivo, po.
The nature of data set [9]: Antioxidant activity assessed as DPPH free radical scavenging activity at 0.5 mM relative to untreated control. The data set is classed as functional. For orientation: Loss of DPPH colour is used to gauge radical scavenging.
Data set [10] in a line: Antioxidant activity assessed as DPPH free radical scavenging activity at 0.25 mM relative to untreated control. The data set is classed as functional.

In the case of `CC(C)Cc1ccc(C(C)C(=O)NS(=O)(=O)c2ccc(N)cc2)cc1` (stereo not given), the inhibition in vivo at 50 mg/kg in the data set on Rattus norvegicus [1] amounted to 75%. Also, the Activity in the data set with Rattus norvegicus [2] was 8%. For the same molecule, the inhibition on Acetylcholinesterase [3] was found to be 47.2%; against Cholinesterase [5], 65.9%; in data set [7] it was 48.4%. Besides, the IC50 on Acetylcholinesterase [4] is less than 600 µmol; against Cholinesterase [6], 214.41 µmol. The same molecule had an LD50 at 14 days in data set [8] of 4050 mg/kg.
On to `CC(C)Cc1ccc(C(C)C(=O)O)cc1` (stereo not given) [IBUPROFEN], for which the inhibition in vivo at 50 mg/kg in the data set with Rattus norvegicus [1] was 45%. Further, in the data set with Rattus norvegicus [2], the Activity is on record as 35%. In addition, the inhibition against Acetylcholinesterase [3] turned out to be 61.2%; at Cholinesterase [5], 35.5%; in [9] it was 11.3%; in [7], 42.5%. The IC50 was 235.11 µmol at Acetylcholinesterase [4], less than 600 µmol on Cholinesterase [6] and less than 500 µmol in [10]. The same molecule had an LD50 at 14 days in data set [8] of 630 mg/kg.
In the case of `O=c1c(O)c(-c2ccc(O)c(O)c2)oc2cc(O)cc(O)c12` [QUERCETIN], the inhibition in data set [9] was determined as 93.2%. Further, in data set [10], the IC50 was 16.96 µmol.
For the molecule `Nc1ccc(S(N)(=O)=O)cc1` [SULFANILAMIDE], in the data set on Rattus norvegicus [1], the inhibition in vivo at 50 mg/kg was 10%. Also, the Activity with Rattus norvegicus [2] is reported as 10%. Also, the inhibition is 10.2% on Acetylcholinesterase [3] and 5.19% against Cholinesterase [5]. The molecule further returned an IC50 at Cholinesterase [6] of 138.79 µmol.
